Laboratory results reported in patent US9302999B2, “Substituted triazoles as herbicides” (E. I. DU PONT DE NEMOURS AND COMPANY, priority 2012, dated 2016).

Experiments:
Type in all cases: in vivo
rice (Oryza sativa) = assay: Test C flooded paddy test: rice; conditions: scale 0 to 100 (0 no effect, 100 complete control)
Text: (§1) Plant species in the flooded paddy test consisted of rice (Oryza sativa), sedge, umbrella (small-flower umbrella sedge, Cyperus difformis), ducksalad (Heteranthera limosa) and barnyardgrass (Echinochloa crus-galli) grown to the 2-leaf stage for testing. At time of treatment, test pots were flooded to 3 cm above the soil surface, treated by application of test compounds directly to the paddy water, and then maintained at that water depth for the duration of the test.
(§2) Treated plants and controls were maintained in a greenhouse for 13 to 15 days, after which time all species were compared to controls and visually evaluated. Plant response ratings, summarized in Table C, are based on a scale of 0 to 100 where 0 is no effect and 100 is complete control. A dash (-) response means no test result.

[1] = test system: velvetleaf (Abutilon theophrasti); assay: Test A pre-/postemergence: velvetleaf; conditions: for Velvetleaf plant response rating: Postemergence; for Plant response rating, Velvetleaf: Preemergence
In short: (§3)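 Soil medium was loam blended with sand; treatments pre- and postemergence were applied concurrently, postemergence at one- to two-leaf stage. Approximately ten days in greenhouse preceded visual comparison with untreated controls, scored 0 (no effect) to 100 (complete control).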

[2] = test system: pigweed (Amaranthus retroflexus); assay: Test A pre-/postemergence: pigweed; conditions: for Pigweed plant response rating: Postemergence; for Plant response rating, Pigweed: Preemergence
In short: as §3

corn (Zea mays) = assay: Test A pre-/postemergence: corn; conditions: for Corn plant response rating: Postemergence; for Plant response rating, Corn: Preemergence
In short: as §3

[3] = test system: crabgrass, large (large crabgrass, Digitaria sanguinalis); assay: Test A pre-/postemergence: crabgrass, large; conditions: for Crabgrass, Large plant response rating: Postemergence; for Plant response rating, Crabgrass, Large: Preemergence
In short: as §3

[4] = test system: ducksalad (Heteranthera limosa); assay: Test C flooded paddy test: ducksalad; conditions: scale 0 to 100 (0 no effect, 100 complete control)
Text: as §1, §2

[5] = test system: wheat (Triticum aestivum); assay: Test A pre-/postemergence: wheat; conditions: for Wheat plant response rating: Postemergence; for Plant response rating, Wheat: Preemergence
In short: as §3

[6] = test system: sedge, umbrella (small-flower umbrella sedge, Cyperus difformis); assay: Test C flooded paddy test: sedge, umbrella; conditions: scale 0 to 100 (0 no effect, 100 complete control)
Text: as §1, §2

[7] = test system: barnyardgrass (Echinochloa crus-galli); assay: Test C flooded paddy test: barnyardgrass; conditions: scale 0 to 100 (0 no effect, 100 complete control)
Text: as §1, §2

[8] = test system: foxtail, giant (giant foxtail, Setaria faberii); assay: Test A pre-/postemergence: foxtail, giant; conditions: for Foxtail, Giant plant response rating: Postemergence; for Plant response rating, Foxtail, Giant: Preemergence
In short: as §3

[9] = test system: barnyardgrass (Echinochloa crus-galli); assay: Test A pre-/postemergence: barnyardgrass; conditions: for Barnyardgrass plant response rating: Postemergence; for Plant response rating, Barnyardgrass: Preemergence
In short: as §3

[10] = test system: morningglory (Ipomoea spp.); assay: Test A pre-/postemergence: morningglory; conditions: for Morningglory plant response rating: Postemergence; for Plant response rating, Morningglory: Preemergence
In short: as §3

[11] = Flood (flooded paddy test), 62 g ai/ha, visual rating after 13 to 15 days
[12] = Flood (flooded paddy test), 125 g ai/ha, visual rating after 13 to 15 days
[13] = Flood (flooded paddy test), 250 g ai/ha, visual rating after 13 to 15 days
[14] = 125 g ai/ha, 0 to 100 scale, 0 is no effect, 100 is complete control
[15] = 500 g ai/ha, visual rating on 0 to 100 scale (0 no effect, 100 complete control), approximately ten days
[16] = 125 g ai/ha, 0 to 100 scale (0 no effect, 100 complete control)
[17] = 500 g ai/ha, 0 to 100 scale, 0 is no effect, 100 is complete control

## Cc1nn(-c2ccc(I)cc2)nc1C(=O)c1cccc(C(F)(F)F)c1 [Compound 61]
Rice (Oryza sativa); [11]
  Plant response rating, Rice: 0
Rice (Oryza sativa); [12]
  Plant response rating, Rice: 0
Rice (Oryza sativa); [13]
  Plant response rating, Rice: 0
Rice (Oryza sativa); Flood, 31 g ai/ha
  Plant response rating, Rice: 0
[1]; [14]
  Velvetleaf plant response rating: 10
[1]; [15]
  Velvetleaf plant response rating: 30
[1]; [16]
  Plant response rating, Velvetleaf: 0
[1]; [17]
  Plant response rating, Velvetleaf: 0
[2]; [14]
  Pigweed plant response rating: 40
[2]; [15]
  Pigweed plant response rating: 80
[2]; [16]
  Plant response rating, Pigweed: 0
[2]; [17]
  Plant response rating, Pigweed: 10
Corn (Zea mays); [14]
  Corn plant response rating: 10
Corn (Zea mays); [15]
  Corn plant response rating: 10
Corn (Zea mays); [16]
  Plant response rating, Corn: 0
Corn (Zea mays); [17]
  Plant response rating, Corn: 0
[3]; [14]
  Crabgrass, Large plant response rating: 0
[3]; [15]
  Crabgrass, Large plant response rating: 10
[3]; [16]
  Plant response rating, Crabgrass, Large: 0
[3]; [17]
  Plant response rating, Crabgrass, Large: 10
[4]; [11]
  Plant response rating, Ducksalad: 0
[4]; [12]
  Plant response rating, Ducksalad: 0
[4]; [13]
  Plant response rating, Ducksalad: 0
[4]; Flood, 31 g ai/ha
  Plant response rating, Ducksalad: 0
[5]; [14]
  Wheat plant response rating: 0
[5]; [15]
  Wheat plant response rating: 0
[5]; [16]
  Plant response rating, Wheat: 0
[5]; [17]
  Plant response rating, Wheat: 0
[6]; [11]
  Plant response rating, Sedge, Umbrella: 0
[6]; [12]
  Plant response rating, Sedge, Umbrella: 0
[6]; [13]
  Plant response rating, Sedge, Umbrella: 0
[6]; Flood, 31 g ai/ha
  Plant response rating, Sedge, Umbrella: 0
[7]; [11]
  Plant response rating, Barnyardgrass: 0
[7]; [12]
  Plant response rating, Barnyardgrass: 0
[7]; [13]
  Plant response rating, Barnyardgrass: 0
[7]; Flood, 31 g ai/ha
  Plant response rating, Barnyardgrass: 0
[8]; [14]
  Foxtail, Giant plant response rating: 0
[8]; [15]
  Foxtail, Giant plant response rating: 10
[8]; [16]
  Plant response rating, Foxtail, Giant: 0
[8]; [17]
  Plant response rating, Foxtail, Giant: 10
[9]; [14]
  Barnyardgrass plant response rating: 0
[9]; [15]
  Barnyardgrass plant response rating: 10
[9]; [16]
  Plant response rating, Barnyardgrass: 0
[9]; [17]
  Plant response rating, Barnyardgrass: 0
[10]; [14]
  Morningglory plant response rating: 10
[10]; [15]
  Morningglory plant response rating: 30
[10]; [16]
  Plant response rating, Morningglory: 0
[10]; [17]
  Plant response rating, Morningglory: 0

## Cc1nn(-c2ccc(C(F)(F)F)cc2)nc1Cn1ccc(C(F)(F)C(F)(F)F)n1 [Compound 12]
Rice (Oryza sativa); [11]
  Plant response rating, Rice: 0
Rice (Oryza sativa); [13]
  Plant response rating, Rice: 25
[1]; [14]
  Velvetleaf plant response rating: 70
[1]; [15]
  Velvetleaf plant response rating: 100
[1]; [16]
  Plant response rating, Velvetleaf: 60
[1]; [17]
  Plant response rating, Velvetleaf: 70
[2]; [14]
  Pigweed plant response rating: 100
[2]; [15]
  Pigweed plant response rating: 100
[2]; [16]
  Plant response rating, Pigweed: 80
[2]; [17]
  Plant response rating, Pigweed: 100
Corn (Zea mays); [14]
  Corn plant response rating: 20
Corn (Zea mays); [15]
  Corn plant response rating: 30
Corn (Zea mays); [16]
  Plant response rating, Corn: 0
Corn (Zea mays); [17]
  Plant response rating, Corn: 10
[3]; [14]
  Crabgrass, Large plant response rating: 50
[3]; [15]
  Crabgrass, Large plant response rating: 90
[3]; [16]
  Plant response rating, Crabgrass, Large: 90
[3]; [17]
  Plant response rating, Crabgrass, Large: 100
[4]; [11]
  Plant response rating, Ducksalad: 60
[4]; [13]
  Plant response rating, Ducksalad: 70
[5]; [14]
  Wheat plant response rating: 10
[5]; [15]
  Wheat plant response rating: 30
[5]; [16]
  Plant response rating, Wheat: 0
[5]; [17]
  Plant response rating, Wheat: 0
[6]; [11]
  Plant response rating, Sedge, Umbrella: 50
[6]; [13]
  Plant response rating, Sedge, Umbrella: 80
[7]; [11]
  Plant response rating, Barnyardgrass: 40
[7]; [13]
  Plant response rating, Barnyardgrass: 60
[8]; [14]
  Foxtail, Giant plant response rating: 50
[8]; [15]
  Foxtail, Giant plant response rating: 70
[8]; [16]
  Plant response rating, Foxtail, Giant: 80
[8]; [17]
  Plant response rating, Foxtail, Giant: 100
[9]; [14]
  Barnyardgrass plant response rating: 30
[9]; [15]
  Barnyardgrass plant response rating: 80
[9]; [16]
  Plant response rating, Barnyardgrass: 30
[9]; [17]
  Plant response rating, Barnyardgrass: 80
[10]; [14]
  Morningglory plant response rating: 70
[10]; [15]
  Morningglory plant response rating: 100
[10]; [16]
  Plant response rating, Morningglory: 10
[10]; [17]
  Plant response rating, Morningglory: 40

## Cc1nn(-c2ccc(C(F)(F)F)nc2)nc1C(=O)c1cccc(C(F)(F)F)c1 [Compound 73]
Rice (Oryza sativa); [11]
  Plant response rating, Rice: 0
Rice (Oryza sativa); [12]
  Plant response rating, Rice: 0
Rice (Oryza sativa); [13]
  Plant response rating, Rice: 0
Rice (Oryza sativa); Flood, 31 g ai/ha
  Plant response rating, Rice: 0
[1]; [14]
  Velvetleaf plant response rating: 20
[1]; [15]
  Velvetleaf plant response rating: 40
[1]; [16]
  Plant response rating, Velvetleaf: 0
[1]; [17]
  Plant response rating, Velvetleaf: 10
[2]; [14]
  Pigweed plant response rating: 70
[2]; [15]
  Pigweed plant response rating: 100
[2]; [16]
  Plant response rating, Pigweed: 30
[2]; [17]
  Plant response rating, Pigweed: 100
Corn (Zea mays); [14]
  Corn plant response rating: 10
Corn (Zea mays); [15]
  Corn plant response rating: 20
Corn (Zea mays); [16]
  Plant response rating, Corn: 0
Corn (Zea mays); [17]
  Plant response rating, Corn: 0
[3]; [14]
  Crabgrass, Large plant response rating: 20
[3]; [15]
  Crabgrass, Large plant response rating: 60
[3]; [16]
  Plant response rating, Crabgrass, Large: 50
[3]; [17]
  Plant response rating, Crabgrass, Large: 90
[4]; [11]
  Plant response rating, Ducksalad: 0
[4]; [12]
  Plant response rating, Ducksalad: 0
[4]; [13]
  Plant response rating, Ducksalad: 85
[4]; Flood, 31 g ai/ha
  Plant response rating, Ducksalad: 0
[5]; [14]
  Wheat plant response rating: 10
[5]; [15]
  Wheat plant response rating: 20
[5]; [16]
  Plant response rating, Wheat: 0
[5]; [17]
  Plant response rating, Wheat: 10
[6]; [11]
  Plant response rating, Sedge, Umbrella: 0
[6]; [12]
  Plant response rating, Sedge, Umbrella: 0
[6]; [13]
  Plant response rating, Sedge, Umbrella: 0
[6]; Flood, 31 g ai/ha
  Plant response rating, Sedge, Umbrella: 0
[7]; [11]
  Plant response rating, Barnyardgrass: 0
[7]; [12]
  Plant response rating, Barnyardgrass: 0
[7]; [13]
  Plant response rating, Barnyardgrass: 0
[7]; Flood, 31 g ai/ha
  Plant response rating, Barnyardgrass: 0
[8]; [14]
  Foxtail, Giant plant response rating: 10
[8]; [15]
  Foxtail, Giant plant response rating: 40
[8]; [16]
  Plant response rating, Foxtail, Giant: 60
[8]; [17]
  Plant response rating, Foxtail, Giant: 90
[9]; [14]
  Barnyardgrass plant response rating: 10
[9]; [15]
  Barnyardgrass plant response rating: 30
[9]; [16]
  Plant response rating, Barnyardgrass: 0
[9]; [17]
  Plant response rating, Barnyardgrass: 40
[10]; [14]
  Morningglory plant response rating: 20
[10]; [15]
  Morningglory plant response rating: 70
[10]; [16]
  Plant response rating, Morningglory: 0
[10]; [17]
  Plant response rating, Morningglory: 10

## Cc1nn(-c2ccc(Cl)cc2)nc1C(=O)c1cccc(C(F)(F)F)c1 [Compound 42]
Rice (Oryza sativa); [11]
  Plant response rating, Rice: 0
Rice (Oryza sativa); [13]
  Plant response rating, Rice: 0
[1]; [14]
  Velvetleaf plant response rating: 10
[1]; [15]
  Velvetleaf plant response rating: 20
[1]; [16]
  Plant response rating, Velvetleaf: 0
[1]; [17]
  Plant response rating, Velvetleaf: 0
[2]; [14]
  Pigweed plant response rating: 50
[2]; [15]
  Pigweed plant response rating: 90
[2]; [16]
  Plant response rating, Pigweed: 10
[2]; [17]
  Plant response rating, Pigweed: 60
Corn (Zea mays); [14]
  Corn plant response rating: 10
Corn (Zea mays); [15]
  Corn plant response rating: 10
Corn (Zea mays); [16]
  Plant response rating, Corn: 0
Corn (Zea mays); [17]
  Plant response rating, Corn: 0
[3]; [14]
  Crabgrass, Large plant response rating: 10
[3]; [15]
  Crabgrass, Large plant response rating: 30
[3]; [16]
  Plant response rating, Crabgrass, Large: 10
[3]; [17]
  Plant response rating, Crabgrass, Large: 50
[4]; [11]
  Plant response rating, Ducksalad: 0
[4]; [13]
  Plant response rating, Ducksalad: 0
[5]; [14]
  Wheat plant response rating: 0
[5]; [15]
  Wheat plant response rating: 10
[5]; [16]
  Plant response rating, Wheat: 0
[5]; [17]
  Plant response rating, Wheat: 0
[6]; [11]
  Plant response rating, Sedge, Umbrella: 0
[6]; [13]
  Plant response rating, Sedge, Umbrella: 0
[7]; [11]
  Plant response rating, Barnyardgrass: 0
[7]; [13]
  Plant response rating, Barnyardgrass: 0
[8]; [14]
  Foxtail, Giant plant response rating: 10
[8]; [15]
  Foxtail, Giant plant response rating: 20
[8]; [16]
  Plant response rating, Foxtail, Giant: 10
[8]; [17]
  Plant response rating, Foxtail, Giant: 70
[9]; [14]
  Barnyardgrass plant response rating: 0
[9]; [15]
  Barnyardgrass plant response rating: 10
[9]; [16]
  Plant response rating, Barnyardgrass: 0
[9]; [17]
  Plant response rating, Barnyardgrass: 10
[10]; [14]
  Morningglory plant response rating: 10
[10]; [15]
  Morningglory plant response rating: 50
[10]; [16]
  Plant response rating, Morningglory: 0
[10]; [17]
  Plant response rating, Morningglory: 10
